Experimental data reported in patent publication US20230330040A1, “IMMUNOLOGICAL EFFECTS OF METABOLITES” (The Regents of the University of California, priority 2020, published 2023).
Entries after “also recorded” stand apart in the source; their conditions may differ.

What was measured:
[1] = test system: C. elegans var. Bristol (N2); assay: C. elegans lifespan analysis; type: in vivo; details: for lifespan extension versus untreated control worms / lifespan versus spermidine treated worms: lifelong treatment; for lifespan extension versus untreated control worms: 0.2 mM spermidine, 0.5 mM 1-MNA, 0.01 and 0.1 mM PEA, 0.01 mM OEA, b30 prints 100 μM spermidine, 100 μM 1-MNA; for lifespan extension versus Control: lifelong exposure
Protocol: C. elegans var. Bristol (N2), was used as the wild-type strain. Strains were maintained and lifespan assays were performed at 20° C. Twenty-four hours after seeding Escherichia coli (OP50) bacteria on standard NGM plates, the bacteria were killed by 4 min exposure to UV irradiation using a Stratalinker UV crosslinker (Stratagene, Model 2400). The following concentrations of compounds were used: 0.2 mM spermidine, 0.5 mM 1-MNA, 0.01 and 0.1 mM PEA, and 0.01 mM OEA. Spermidine and MNA were diluted into 100 μl sterilized water and applied to the top of the agar medium (3 ml NGM plates). Plates were then gently swirled to allow compounds to spread to the entire NGM surface. Identical solutions of compound-free water were used for the control plates. Plates were then allowed to dry overnight. The procedure was repeated each time worms were transferred to fresh plates (every 2-4 days). PEA and OEA were added to cooled agar, prior to solidification; for the combination, all compounds were added to cooled agar and plates stored at 4° C. Synchronous worm populations were generated by hypochlorite treatment of gravid adults and life span assays were performed beginning at the L4 stage (Day 0). Seven to eight plates of 15 worms each were exposed to the indicated compounds. Animals were transferred to fresh plates every 2 days for the first week and then 3-4 days thereafter. Worms were examined for touch-provoked movement and pharyngeal pumping, until death. Worms that died due to desiccation from crawling on the edge of the plates, were censored. Kaplan-Meier survival curves were created to evaluate C. elegans lifespan. The R package survival (3.1.8) was used to fit the Cox proportional hazards regression model to evaluate differences of survivals between each treatment group versus control.

[2] = test system: total cyclooxygenase (COX) activity; assay: COX activity assay in LPS stimulated THP-1 macrophage; type: cell-based, human; details: spermidine 100 μM, 1-MNA 100 μM, PEA 10 nM, OEA 10 μM, Combo = all four
Protocol: For certain assays requiring high cellular concentrations beyond what was feasible to isolate from human volunteers, THP-1 monocytes (ATCC, TIB-202) were cultured in RPMI 1640, 10% FBS, lx PSG and differentiated into M0 macrophage using 100 nM phorbol 12-myristate-13-acetate (PMA) for 2 days followed by incubation with clean RPMI, 10% FBS, 1×PSG for 1 day.
The effect of treatment with participant plasma and individual metabolites on the total cellular COX activity of THP-1 macrophage was measured using a commercially available kit (Cayman Chemical, 760151). In order to induce COX-2 expression, THP-1 macrophage were incubated with 10 ng/mL of lipopolysaccharide (LPS) (Sigma, LPS25) in RPMI, 1×PSG along with 20% participant plasma, or in RMPI, 10% FBS, 1×PSG either alone as a positive control or with isolated metabolites overnight (approximately 18 hrs) before measuring total COX activity from cell lysates. A negative control of macrophage in RPMI, 10% FBS, 1×PSG without LPS was also performed. (Inter CV: 5.4, Intra CV: 12.3)

Row | total COX activity versus vehicle treated positive control [2] | Compound | lifespan extension versus untreated control worms [1] | lifespan versus spermidine treated worms [1] | lifespan extension versus Control ([1]; PEA 10 μM (lower concentration)) | lifespan extension versus Control ([1]; PEA 100 μM)
1 |  | C[n+]1cccc(C(N)=O)c1 [1-MNA, 1-methylnicotinamide] | Significant lifespan extension was observed for all metabolites except 1-MNA |  |  | 
2 |  | CCCCCCCC/C=C\CCCCCCCC(=O)NCCO [OEA, oleoylethanolamide] | significantly increased lifespan extension; also recorded: Significant lifespan extension | significantly increased lifespan |  | 
3 | potent inhibitor of COX activity | CCCCCCCCCCCCCCCC(=O)NCCO [PEA, palmitoylethanolamide] | significantly increased lifespan extension | significantly increased lifespan | most effective at increasing lifespan; also recorded: Significant lifespan extension | Significant lifespan extension
4 |  | NCCCCNCCCN [spermidine] | significantly increased lifespan extension; also recorded: Significant lifespan extension |  |  | 
